Several values for one entry are separate records, joined by “and”; a condition that tells them apart may be missing. Equal entries are not always repeated. Entries after “also recorded” stand apart in the source; their conditions may differ.
Tests used:
Galectin-3 = molecular target: T1, Galectin-3 (Homo sapiens, UniProt P17931); experiment: Galectin-3 binding to its ligand asialofetuin (ASF), ELISA; conditions: Galectin-3 5 μg/ml, ASF 20 μg/ml, read-out: IC50, inhibition of Galectin-3 binding to ASF
T1 construct: made in house; host or cells: E. coli
Method: The compounds of Formula I and Formula II each inhibits Galectin-3 binding to ASF dose-dependently with IC50 1˜5 μM;
FIG. 1A and FIG. 1B show compounds of Formula I and Formula II inhibit Galectin-3 binding to its ligand asialofetuin (ASF). […] The compounds of Formula I and Formula II each inhibit Galectin-3 binding to ASF dose-dependently with IC50 1˜5 μM.
Ninety-six well ELISA plates were coated with 20 μg/ml ASF in coating buffer (1.6 g Na2CO3, 1.46 NaHCO3 in 1 L H20, pH 9.6) overnight at room temperature. The plates were washed twice with washing buffer (0.05% Tween-20 in PBS) before incubation with blocking buffer (1% BSA in PBS) for 30 min. Recombinant human Galectin-3 (5 ug/ml) was incubated without or with various concentrations of the compounds of Formula I and compounds of Formula II for 30 min before introduced to the plates for 2 hr at room temperature. The plates were washed twice with washing buffer before introduction of anti-Galectin-3 antibody (1 μg/ml) for 2 hr. The plates were washed three times with washing buffer before introduction of HRP-conjugated secondary antibody (1:5,000 dilutions) for 1 hr at room temperature. The plates were washed twice with washing buffer before developed by SigmaFAST. The reaction was stopped by addition of 4M sulphuric acid before the plates were read at 492 nm (ref 595 nm) by a microplate reader.

SW620^Gal3+ cells = experiment: Tumour cell adhesion to laminin; assay type: cell-based, human; conditions: 10 μM; Galectin-3-expressing SW620^Gal3+ cells
Method: (§1) White wall 96-well plates were coated with laminin (20 μg/ml) in coating buffer (15 mM Na2CO3 17 mM NaHCO3 pH 9.6) overnight at room temperature. ZsGreen- and luciferase-transfected SW620Gal3+, SW620Gal-3, or ACA19+ cells (5×10^5 cells/ml) were pre-incubated without or with 10 μM of the compound of Formula I or the compound of Formula II for 10 minutes before added into laminin-coated plates for 30 min at 37° C. The plates were washed twice with PBS before lysed by PLB for 5 min on a shaker. Luciferase Assay Reagent was then added before luminescence was measured using Tecan Infinite F200 microplate reader.
(§2) Nanty-six well plates were coated with matrix protein laminin (20 μg/ml) in coating buffer overnight. ZsGreen- and luciferase-labelled SW620Gal3− and SW620Gal3+ cells (5×10^5 cells/ml) were mixed without or with 10 μM inhibitors for 15 minutes before introduced to the laminin-coated plates for 30 minutes at 37° C. The plates were washed twice with PBS and the bound cells were lysed by Passive lysis buffer. After addition of Luciferase Assay Reagent (LAR) for 10 minutes, the luminescence intensity in the wells was measured by a microplate reader.

SW620^Gal3− cells = experiment: Tumour cell adhesion to laminin; assay type: cell-based, human; conditions: 10 μM; Galectin-3-suppressed SW620^Gal3− cells
Method: as §1, §2

ACA19+ cells = experiment: Melanoma cell adhesion to HUVECs; assay type: cell-based; conditions: human melanoma ACA19+ cells, various concentrations
Method: Adhesion of human colon cancer SW620 cells to human umbilical vein endothelial cells (HUVECs) was assessed in the absence or presence of the compounds of Formula I and Formula II (10 μM). […] (N=2, n=2);
Adhesion of human colon cancer SW620 cells to human umbilical vein endothelial cells (HUVECs) was assessed in the absence or presence of the compounds of Formula I and Formula II (10 μM).
HUVECs (1.5×10^5 cells/ml) were seeded into 96-well plates in complete EBM-2 medium and incubated at 37° C. 5% CO2 for 48-72 hours until a monolayer was formed. Monolayer integrity was confirmed by measuring trans-endothelial electrical resistance (TEER) using a Volt Ohm Meter and only monolayers with TEER reading over 800 Ω/cm^2 were used for the assay. ZsGreen- and luciferase-transfected SW620Gal3+, SW620Gal3− or ACA19+ cells (5×10^5 cells/ml) was then added to the HUVECs without or with 10 μM of the compound of Formula I or the compound of Formula II for 30-35 min at 37° C. The cells were washed twice with PBS before lysed with PLB. The cell lysates were transferred into new wells of white-walled 96-well plates and Luciferase Assay Reagent was added. The wells were mixed well and luminescence was measured using Infinite F200 Microplate reader. The experiment was performed three times, each time in triplicates.

H1975 cell = experiment: Lung cancer cell adhesion to basement matrix; assay type: cell-based, human; conditions: for IC50: Homo sapiens, NCI-H1975; for H1975 cell adhesion to matrix: different concentrations
Method: (§3) Nanty-six well plates were coated with 50 μl Matrigel (1:30 diluted in PBS) at 37° C. for 1 hour. Cancer cells, pre-labelled with fluorescent die DiI at 37° C. for 20 minutes, were washed twice with PBS and resuspended into 3×10^4 cells/ml in serum-free medium. The matrix-coated 96-well plates were washed twice with PBS before introduction of […] cell suspension with different concentrations of the inhibitors or PBS/DMSO (control) for 1 hour at 37° C. The plates were washed twice with PBS before three randomly selected Field of Views (FOVs) were recorded by fluorescence microscope and number of adhesion cells were quantified by Image J.

MDA-MB-231 cell = experiment: Triple-negative breast cancer cell adhesion to basement matrix; assay type: cell-based, human; conditions: for adhesion of control (Con) MDA-MB-231 cells: non-transfected cells (FIG. 15C, 15D); for MDA-MB-231 cell adhesion to matrix: different concentrations (FIG. 15A, 15B)
Method: as §3

PANC1 cell = experiment: Pancreatic cancer cell adhesion to basement matrix; assay type: cell-based, human; conditions: for adhesion of control PANC1 cells: non-transfected cells (FIG. 16C, 16D); for PANC1 cell adhesion to matrix: different concentrations (FIG. 16A, 16B)
Method: as §3

[1] = tested on: galectin-3 knockout (Gal3KO) PANC1 cells; experiment: Pancreatic cancer cell adhesion to basement matrix, galectin-3 knockout; assay type: cell-based, human; conditions: galectin-3 knockout by CRISPR/Cas9 (FIG. 16C, 16D)
Method: as §3
MDAMB-231 or PANC-1 cells were seeded into 6-well plate (2×10^5 cells) and cultured at 37° C. for 24 hour. Galectin-3 CRISPR Cas9 Knockout plasmid (2 μg) and galectin-3 HDR plasmid (2 μg) was mixed with Plasmid Transfection Medium (21 μl) for 5 minutes before addition to a mixture of lipofectamine STEM Transfection Reagent (STEM00001) (1 μl) and Plasmid Transfection Medium (25 μl) for 10 minutes at room temperature. The cells in the 6-well plates were washed and introduced with the Plasmid DNA/Lipofectamine STEM Transfection Reagent complex at 37° C. for 24 hours. […] Successful co-transfection of the CRISPR/Cas9 KO Plasmid and HDR Plasmid was confirmed by expression of red fluorescence protein of the cells. […]

T1 sequence (P17931 whole entry): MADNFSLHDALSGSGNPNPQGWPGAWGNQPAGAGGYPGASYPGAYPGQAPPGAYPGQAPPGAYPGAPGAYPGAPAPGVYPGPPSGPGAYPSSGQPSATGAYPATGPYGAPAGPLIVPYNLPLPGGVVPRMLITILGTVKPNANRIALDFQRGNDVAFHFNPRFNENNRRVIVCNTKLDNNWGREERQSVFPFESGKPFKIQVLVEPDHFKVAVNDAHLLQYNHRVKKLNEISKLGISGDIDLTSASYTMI

SMILES	IC50 (Galectin-3)	adhesion to matrix protein component laminin (SW620^Gal3+ cells)	adhesion to matrix protein component laminin (SW620^Gal3− cells)	ACA19+ cell adhesion to HUVEC (ACA19+ cells)	IC50 (H1975 cell) [µM]	H1975 cell adhesion to matrix (H1975 cell)	adhesion of control (Con) MDA-MB-231 cells (MDA-MB-231 cell)	MDA-MB-231 cell adhesion to matrix (MDA-MB-231 cell)	adhesion of control PANC1 cells (PANC1 cell)	PANC1 cell adhesion to matrix (PANC1 cell)	adhesion of Gal3KO PANC1 cells [1]
C[C@H]1COc2c(N3CCN(C)CC3)c(F)cc3c(=O)c(C(=O)NNc4cccc(N)c4)cn1c23 [Formula II]	~5 µM and 1 to 5 µM	significantly inhibits	much reduced effect	dose-dependent inhibition	~10	dose-dependently inhibits	significant reduction; also recorded: significant inhibition	dose-dependent inhibition	significant reduction; also recorded: significant inhibition	dose-dependently inhibits	lost their inhibitory effect
C[C@H]1COc2c(N3CCN(C)CC3)c(F)cc3c(=O)c(C(=O)NNc4ccc(N)cc4)cn1c23 [Formula I]	~1 µM and 1 to 5 µM	significantly inhibits	much reduced effect	dose-dependent inhibition	> 20	dose-dependently inhibits	significant reduction; also recorded: significant inhibition	dose-dependent inhibition	significant reduction; also recorded: significant inhibition	dose-dependently inhibits	lost their inhibitory effect
